Data published in PubChem BioAssay (NCI).
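A five-concentration, 48-hour dose response in 96-well plates underlies each endpoint, interpolated linearly between surrounding concentrations. TGI denotes the concentration required for complete inhibition of growth.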

Tests used:
Test in all cases: NCI anticancer screen, dose series, 48 h
[1] = system: SF-268 CNS
[2] = system: IGROV1 ovarian
[3] = system: ACHN renal
[4] = system: NCI-H460 lung
[5] = system: TK-10 renal
[6] = system: SNB-75 CNS
[7] = system: SN12C renal
[8] = system: CAKI-1 renal
[9] = system: K-562 leukemia
[10] = system: COLO 205 colon
[11] = system: HCT-15 colon
[12] = system: NCI-H226 lung
[13] = system: T-47D breast
[14] = system: HS 578T breast
[15] = system: MDA-MB-231 breast
[16] = system: MDA-N
[17] = system: NCI/ADR-RES ovarian
[18] = system: SR leukemia
[19] = system: BT-549 breast

| SMILES | TGI [1] [µM] | TGI [2] [µM] | TGI [3] [µM] | TGI [4] [µM] | TGI [5] [µM] | TGI [6] [µM] | TGI [7] [µM] | TGI [8] [µM] | TGI [9] [µM] | TGI [10] [µM] | TGI [11] [µM] | TGI [12] [µM] | TGI [13] [µM] | TGI [14] [µM] | TGI [15] [µM] | TGI [16] [µM] | TGI [17] [µM] | TGI [18] [µM] | TGI [19] [µM] |
| --- | --- | --- | --- | --- | --- | --- | --- | --- | --- | --- | --- | --- | --- | --- | --- | --- | --- | --- | --- |
| CC(=O)O[C@H]1C(=O)[C@@]2(C)C(C(OC(=O)c3ccccc3)[C@]3(O)CC(OC(=O)C(O)C(NC(=O)c4ccc(C)cc4)c4ccccc4)C(C)=C1C3(C)C)[C@]1(OC(C)=O)CO[C@@H]1C[C@@H]2O (some centres undefined) | > 25 | 0.101 | > 25 | > 25 | 9.47 | 0.0486 | > 25 | 11.1 | 5.77 | 0.00736 | 3.29 | – | – | – | – | – | – | – | – |
| Clc1c(Cl)c2c(Cl)c(Cl)c1C[P+](c1ccccc1)(c1ccccc1)CC[P+](c1ccccc1)(c1ccccc1)Cc1c(Cl)c(Cl)c(c(Cl)c1Cl)C[P+](c1ccccc1)(c1ccccc1)CC[P+](c1ccccc1)(c1ccccc1)C2 | 12.6 | 12.4 | 17.6 | 12.4 | 9.41 | 14.2 | 15.3 | 33.1 | 9.17 | 2.89 | 24.6 | 20.2 | – | – | – | – | – | – | – |
| CC(C)NCC(O)c1ccc(OCc2ccccc2)c(OCc2ccccc2)c1-c1ccccc1 (centres undefined) | 11.8 | 2.71 | 3.06 | 3.49 | 3.9 | 2.54 | 3.13 | 3.18 | – | 3.2 | 3.22 | 4.28 | 7.53 | 2.74 | 3.16 | 3.1 | 3.73 | – | – |
| CC(C)OP(=O)(OC(C)C)C(=Nc1ccccc1)NNc1ccc([N+](=O)[O-])cc1 | > 100 | – | 92.5 | > 100 | 46.2 | > 100 | > 100 | > 100 | > 100 | 51.5 | > 100 | 84.9 | – | – | – | – | – | 43.4 | – |
| Cc1[nH]c(=O)nc(NCCNCCO)c1C(=O)Nc1c2ccccc2nc2ccccc12 | – | > 100 | > 100 | – | > 100 | > 100 | > 100 | > 100 | > 100 | > 100 | > 100 | > 100 | > 100 | – | > 100 | > 100 | > 100 | – | – |
| CCOC(=O)C1=c2[nH]c3cccc4cccc(c43)n2C=C(C(C)=O)C1CC(C)=O (centres undefined) | – | > 100 | > 100 | > 100 | > 100 | > 100 | > 100 | > 100 | > 100 | > 100 | > 100 | – | > 100 | – | – | > 100 | > 100 | > 100 | > 100 |
| COP1(=O)Oc2ccccc2C(=O)C(C(F)(F)F)(C(F)(F)F)O1 (centres undefined) | > 100 | > 100 | > 100 | > 100 | > 100 | > 100 | > 100 | > 100 | > 100 | > 100 | > 100 | – | – | – | – | – | – | > 100 | – |
| N#CC(c1cc2c(cc1Br)OCO2)N1CCOCC1 (centres undefined) | > 100 | > 100 | > 100 | > 100 | > 100 | 99.6 | > 100 | > 100 | 57.1 | > 100 | – | > 100 | > 100 | 83.8 | > 100 | > 100 | > 100 | 60.3 | – |
